The target in test [1] is Adenosine A2a (ADORA2A) receptor (Homo sapiens (Human), UniProt P29274). As to the kind of experiment: ADORA2A Receptor Binding Assay. As to conditions: radioligand binding, membrane stock. Summed up:
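Test compounds incubated with A2a receptor membranes and a ³H-labelled radioligand for 2 hours at room temperature, then filtered through PEI-presoaked GF/C plates and washed. Filter-bound ³H counted by scintillation; % inhibition calculated from background-subtracted signal relative to high control.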

The target of test [2] is Adenosine A2B (ADORA2B) receptor (Homo sapiens (Human), UniProt P29275). The experiment in a line: ADORA2B Receptor Binding Assay. As to conditions: radioligand binding, membrane stock. The essentials: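 Radioligand competition binding on human A2B receptor membranes, 1 h at room temperature, then filtration through BSA-presoaked GF/C filters and ³H counting by scintillation. Inhibition expressed as % of high control after background subtraction.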
Chain of Adenosine A2B (ADORA2B) receptor (P29275 whole entry): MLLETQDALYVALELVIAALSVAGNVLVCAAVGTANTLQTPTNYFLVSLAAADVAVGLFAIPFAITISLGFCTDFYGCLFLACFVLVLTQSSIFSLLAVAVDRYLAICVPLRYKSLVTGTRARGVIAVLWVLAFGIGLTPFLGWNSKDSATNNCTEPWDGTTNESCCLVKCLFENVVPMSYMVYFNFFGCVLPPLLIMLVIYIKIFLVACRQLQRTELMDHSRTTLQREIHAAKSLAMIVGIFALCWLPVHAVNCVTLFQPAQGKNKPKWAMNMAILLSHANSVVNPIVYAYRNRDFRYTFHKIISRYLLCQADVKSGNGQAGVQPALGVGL

Chain of Adenosine A2a (ADORA2A) receptor (P29274 whole entry): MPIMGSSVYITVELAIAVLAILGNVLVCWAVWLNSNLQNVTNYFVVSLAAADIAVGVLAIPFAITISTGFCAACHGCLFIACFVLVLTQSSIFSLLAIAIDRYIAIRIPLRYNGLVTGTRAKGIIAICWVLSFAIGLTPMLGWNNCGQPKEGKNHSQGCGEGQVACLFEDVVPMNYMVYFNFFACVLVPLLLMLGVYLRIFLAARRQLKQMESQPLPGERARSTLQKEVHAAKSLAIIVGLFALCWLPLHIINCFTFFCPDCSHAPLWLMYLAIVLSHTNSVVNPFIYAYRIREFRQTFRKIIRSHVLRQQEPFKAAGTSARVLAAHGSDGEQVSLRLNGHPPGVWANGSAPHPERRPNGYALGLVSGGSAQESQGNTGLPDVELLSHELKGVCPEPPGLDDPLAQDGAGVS

As to `Cc1cc2c(nc(-c3ccco3)n3nc(C(C)C)nc23)[nH]1` [Compound 81, 7-(furan-2-yl)-11-methyl-4-propan-2-yl-3,5,6,8,10-pentazatricyclo[7.3.0.0^2,6]dodeca-1(9),2,4,7,11-pentaene], the IC50 (usually the point on the concentration scale where inhibition reaches its midpoint) in test [1] was less than 0.01 µM; in test [2], 0.01 to 0.1 µM.
`Cc1cc2c(nc(-c3ccco3)n3nc(C(F)(F)F)nc23)[nH]1` [Compound 82, 7-(furan-2-yl)-11-methyl-4-(trifluoromethyl)-3,5,6,8,10-pentazatricyclo[7.3.0.0^2,6]dodeca-1(9),2,4,7,11-pentaene]: the IC50 in test [1] and in test [2] was less than 0.01 µM in each case.
On to `Cc1nc2c(Br)c(N)nc(-c3ccc(F)cc3)n2n1` [Compound 83, 8-bromo-5-(4-fluorophenyl)-2-methyl-[1,2,4]triazolo[1,5-c]pyrimidin-7-amine], for which the figures for the IC50 in test [1] and in test [2] were 0.01 to 0.1 µM and 0.1 to 1 µM, respectively.
Taken in the same sequence, the figures for `Cc1nc2c(Cl)c(N)nc(-c3ccccc3Cl)n2n1` [Compound 84, 8-chloro-5-(2-chlorophenyl)-2-methyl-[1,2,4]triazolo[1,5-c]pyrimidin-7-amine] were more than 1 µM and more than 1 µM.
Taken in the same sequence, the figures for `Cc1nc2cc(NC(=O)C3CC3)nc(-c3ccc(F)o3)n2n1` [Compound 85, N-[5-(5-fluorofuran-2-yl)-2-methyl-[1,2,4]triazolo[1,5-c]pyrimidin-7-yl]cyclopropanecarboxamide] were less than 0.01 µM and less than 0.01 µM.
The corresponding values for `CC(C)c1nc2c(Cl)c(N)nc(-c3ccccc3)n2n1` [Compound 86, 8-chloro-5-phenyl-2-propan-2-yl-[1,2,4]triazolo[1,5-c]pyrimidin-7-amine] are less than 0.01 µM and 0.01 to 0.1 µM.
Regarding `Nc1nc(-c2ccccc2)n2nc(C(F)(F)F)nc2c1Cl` [Compound 87, 8-chloro-5-phenyl-2-(trifluoromethyl)-[1,2,4]triazolo[1,5-c]pyrimidin-7-amine], the results for the IC50 in test [1] and in test [2] were less than 0.01 µM and 0.01 to 0.1 µM, respectively.
Taken in the same sequence, the figures for `Cc1cc2c(nc(-c3ccc(C)o3)n3nc(C(F)(F)F)nc23)[nH]1` [Compound 88, 11-methyl-7-(5-methylfuran-2-yl)-4-(trifluoromethyl)-3,5,6,8,10-pentazatricyclo[7.3.0.0^2,6]dodeca-1(9),2,4,7,11-pentaene] were less than 0.01 µM and less than 0.01 µM.
Take `Cc1nc2c(Br)c(N)nc(-c3ccccc3)n2n1` [Compound 89, 8-bromo-2-methyl-5-phenyl-[1,2,4]triazolo[1,5-c]pyrimidin-7-amine]: the IC50 in test [1] and in test [2] was 0.01 to 0.1 µM throughout.
With `CC(=O)Nc1cc2nc(C)nn2c(-c2ccc(Br)o2)n1` [Compound 90, N-[5-(5-bromofuran-2-yl)-2-methyl-[1,2,4]triazolo[1,5-c]pyrimidin-7-yl]acetamide], the IC50 in test [1] and in test [2] was less than 0.01 µM each time.
Regarding `CC(=O)Nc1cc2nc(C3COC3)nn2c(-c2ccco2)n1` [Compound 91, N-[5-(furan-2-yl)-2-(oxetan-3-yl)-[1,2,4]triazolo[1,5-c]pyrimidin-7-yl]acetamide], the IC50 in test [1] was less than 0.01 µM; in test [2], 0.01 to 0.1 µM.
In the case of `O=C(Nc1cc2nc(C3COC3)nn2c(-c2ccco2)n1)C1CC1` [Compound 92, N-[5-(furan-2-yl)-2-(oxetan-3-yl)-[1,2,4]triazolo[1,5-c]pyrimidin-7-yl]cyclopropanecarboxamide], the IC50 is less than 0.01 µM in test [1] and 0.01 to 0.1 µM in test [2].
Taken in the same sequence, the figures for `CC(=O)Nc1cc2nc(C)nn2c(-c2cccc(C(C)=O)c2)n1` [Compound 93, N-[5-(3-acetylphenyl)-2-methyl-[1,2,4]triazolo[1,5-c]pyrimidin-7-yl]acetamide] were more than 1 µM and more than 1 µM.
Taken in the same sequence, the figures for `CC(=O)c1cccc(-c2nc(NC(=O)OC(C)(C)C)cc3nc(C)nn23)c1` [Compound 94, tert-butyl N-[5-(3-acetylphenyl)-2-methyl-[1,2,4]triazolo[1,5-c]pyrimidin-7-yl]carbamate] were more than 1 µM and more than 1 µM.
The corresponding values for `CC(=O)c1cccc(-c2nc(N)cc3nc(C)nn23)c1` [Compound 95, 1-[3-(7-amino-2-methyl-[1,2,4]triazolo[1,5-c]pyrimidin-5-yl)phenyl]ethanone] are more than 1 µM and more than 1 µM.
Turning to `CC(=O)c1cccc(-c2nc(NC(=O)C3CC3)cc3nc(C)nn23)c1` [Compound 96, N-[5-(3-acetylphenyl)-2-methyl-[1,2,4]triazolo[1,5-c]pyrimidin-7-yl]cyclopropanecarboxamide], the IC50 in test [1] and in test [2] was 0.1 to 1 µM each time.
For `Cc1nc2c3c(nc(-c4ccc(C)o4)n2n1)NC(=O)C3` [Compound 97, 4-methyl-7-(5-methylfuran-2-yl)-3,5,6,8,10-pentazatricyclo[7.3.0.0^2,6]dodeca-1(9),2,4,7-tetraen-11-one], the half-inhibitory concentration (IC50) was less than 0.01 µM in test [1] and 0.01 to 0.1 µM in test [2].
Taken in the same sequence, the figures for `Cc1ccc(-c2nc3c(c4nc(C(C)C)nn24)CC(=O)N3)o1` [Compound 98, 7-(5-methylfuran-2-yl)-4-propan-2-yl-3,5,6,8,10-pentazatricyclo[7.3.0.0^2,6]dodeca-1(9),2,4,7-tetraen-11-one] were 0.01 to 0.1 µM and 0.1 to 1 µM.
Regarding `Cc1nc2cc(NC(=O)C3CC3)nc(-c3ccc(S(C)(=O)=O)cc3)n2n1` [Compound 99, A-[2-methyl-5-(4-methylsulfonylphenyl)-[1,2,4]triazolo[1,5-c]pyrimidin-7-yl]cyclopropanecarboxamide], the half-inhibitory concentration (IC50) in test [1] and in test [2] was more than 1 µM in each case.
Take `Cc1nc2cc(NC(=O)OC(C)(C)C)nc(-c3ccc(S(C)(=O)=O)cc3)n2n1` [Compound 100, tert-butyl N-[2-methyl-5-(4-methylsulfonylphenyl)-[1,2,4]triazolo[1,5-c]pyrimidin-7-yl]carbamate]: the IC50 in test [1] and in test [2] was more than 1 µM in each case.
Turning to `CC(=O)Nc1cc2nc(C)nn2c(-c2ccc(S(C)(=O)=O)cc2)n1` [Compound 101, N-[2-methyl-5-(4-methylsulfonylphenyl)-[1,2,4]triazolo[1,5-c]pyrimidin-7-yl]acetamide], the IC50 in test [1] and in test [2] was more than 1 µM each time.
For the compound `Cc1nc2c3cn[nH]c3nc(-c3ccc(C)o3)n2n1` [Compound 102, 4-methyl-7-(5-methylfuran-2-yl)-3,5,6,8,10,11-hexazatricyclo[7.3.0.0^2,6]dodeca-1(9),2,4,7,11-pentaene], the IC50 in test [1] and in test [2] was 0.01 to 0.1 µM throughout.
Regarding `Cc1nc2cc(NC(=O)N3CCCC3)nc(-c3ccco3)n2n1` [Compound 103, N-[5-(furan-2-yl)-2-methyl-[1,2,4]triazolo[1,5-c]pyrimidin-7-yl]pyrrolidine-1-carboxamide], the results for the IC50 in test [1] and in test [2] were 0.01 to 0.1 µM and 0.1 to 1 µM, respectively.
Regarding `Cc1nc2cc(NC(=O)N3CC[C@@H](O)C3)nc(-c3ccco3)n2n1` [Compound 104, (3R)-N-[5-(furan-2-yl)-2-methyl-[1,2,4]triazolo[1,5-c]pyrimidin-7-yl]-3-hydroxypyrrolidine-1-carboxamide], the values for the IC50 in test [1] and in test [2] were 0.1 to 1 µM and more than 1 µM, respectively.

Values taken from US11718622B2, “Heterocyclic adenosine receptor antagonists” (Exelixis, Inc., priority 2020, dated 2023).
